The molecules below were run on PBMCs infected with VSV-G pseudotyped HIV virus (VSV-G/pNLG1-P2A-ΔEnv) (assay: cells). Conditions: Homo sapiens, PBMC, read-out: TACK EC50.
Type: cell-based

Structure (SMILES) | EC50 [nM]
NS(=O)(=O)c1ccc(Cc2ccc3c(c2)NC(=S)N[C@]3(C#CC2CC2)C(F)(F)F)cc1 [Example 44, (S)-4-((4-(cyclopropylethynyl)-2-thioxo-4-(trifluoromethyl)-1,2,3,4-tetrahydroquinazolin-7-yl)methyl)benzenesulfonamide] | 180
Cc1nc(C)c(Cc2cc3c(cc2Cl)[C@@](C#CC2CC2)(C(F)(F)F)NC(=O)N3)c(=O)[nH]1 (single isomer, unassigned) [Example 62B] | 68.7
N#Cc1c(Cc2cc3c(cc2F)[C@@](C#CC2CC2)(C(F)(F)F)NC(=O)N3)ccnc1N [Example 52, (S)-2-amino-4-((4-(cyclo-propylethynyl)-6-fluoro-2-oxo-4-(trifluoromethyl)-1,2,3,4-tetrahydroquinazolin-7-yl)methyl)nicotinonitrile] | 21.4
CS(=O)(=O)c1ccc(Cc2cc3c(cc2F)[C@@](C#CC2CC2)(C(F)(F)F)NC(=O)N3)cc1 [Example 10, (S)-4-(cyclopropylethynyl)-6-fluoro-7-(4-(methylsulfonyl)-benzyl)-4-(trifluoromethyl)-3,4-dihydroquinazolin-2(1H)-one] | 380
Nc1nccc(Cc2c(F)cc3c(c2F)NC(=O)N[C@]3(C#CC2CC2)C(F)(F)F)n1 [Example 59, (S)-7-((2-aminopyrimidin-4-yl)methyl)-4-(cyclopropylethynyl)-6,8-difluoro-4-(trifluoromethyl)-3,4-dihydroquinazolin-2(1H)-one] | 122
NS(=O)(=O)c1ccc(Cc2ccc3c(c2)NC(=O)N[C@]3(C#CC2CC2)C(F)(F)F)c(F)c1 [Example 6, (S)-4-((4-(cyclopropylethynyl)-2-oxo-4-(trifluoromethyl)-1,2,3,4-tetrahydroquinazolin-7-yl)methyl)-3-fluorobenzenesulfonamide] | 284
Nc1cccc(Cc2ccc3c(c2)NC(=O)N[C@]3(C#CC2CC2)C(F)(F)F)n1 [Example 35, (S)-7-((6-aminopyridin-2-yl)methyl)-4-(cyclopropylethynyl)-4-(trifluoromethyl)-3,4-dihydroquinazolin-2(1H)-one] | 106
Nc1ccc(F)c(Cc2ccc3c(c2)NC(=O)N[C@]3(C#CC2CC2)C(F)(F)F)n1 [Example 36, (S)-7-((6-amino-3-fluoro-pyridin-2-yl)methyl)-4-(cyclopropylethynyl)-4-(trifluoromethyl)-3,4-dihydroquinazolin-2(1H)-one] | 155
CN1C(=O)Nc2cc(Cc3ccnc(N)n3)ccc2[C@@]1(C#CC1CC1)C(F)(F)F [Example 39, (S)-7-((2-aminopyrimidin-4-yl)methyl)-4-(cyclopropylethynyl)-3-methyl-4-(trifluoromethyl)-3,4-dihydroquinazolin-2(1H)-one] | 60.3
Cc1nc(C)c(Cc2ccc3c(c2)NC(=O)N[C@]3(C#CC2CC2)C(F)(F)F)c(=O)[nH]1 [Example 19, (S)-4-(cyclopropylethynyl)-7-((2,4-dimethyl-6-oxo-1,6-dihydropyrimidin-5-yl)meth-yl)-4-(trifluoromethyl)-3,4-dihydroquinazolin-2(1H)-one] | 136
Nc1nc(Cl)cc(Cc2ccc3c(c2)NC(=O)N[C@]3(C#CC2CC2)C(F)(F)F)n1 [Example 48, (S)-7-((2-amino-6-chloropyrimidin-4-yl)methyl)-4-(cyclopropylethynyl)-4-(trifluoromethyl)-3,4-dihydroquinazolin-2(1H)-one] | 142
Nc1nc(Cc2ccc3c(c2)NC(=O)N[C@]3(C#CC2CC2)C(F)(F)F)ccc1CO [Example 45, (S)-7-((6-amino-5-(hydroxymethyl)pyridin-2-yl)methyl)-4-(cyclopropylethynyl)-4-(trifluoromethyl)-3,4-dihydroquinazolin-2(1H)-one] | 53.2
Nc1cc(Cc2ccc3c(c2)NC(=O)N[C@]3(C#CC2CC2)C(F)(F)F)c(F)cn1 [Example 37, (S)-7-((2-amino-5-fluoro-pyridin-4-yl)methyl)-4-(cyclopropylethynyl)-4-(trifluoromethyl)-3,4-dihydroquinazolin-2(1H)-one] | 168
O=C1Nc2cc(Cc3ccccn3)c(F)cc2[C@@](C#CC2CC2)(C(F)(F)F)N1 [Example 53, (S)-4-(cyclopropylethynyl)-6-fluoro-7-(pyridin-2-ylmeth-yl)-4-(trifluoromethyl)-3,4-dihydroquinazolin-2(1H)-one] | 137
Nc1nccc(Cc2cc3c(cc2F)[C@@](C#CC2CC2)(C(F)(F)F)NC(=O)N3)n1 [Example 38, (S)-7-((2-aminopyrimidin-4-yl)methyl)-4-(cyclopropylethynyl)-6-fluoro-4-(trifluoromethyl)-3,4-dihydroquinazolin-2(1H)-one] | 38.6
Cc1cc(Cc2ccc3c(c2)NC(=O)N[C@]3(C#CC2CC2)C(F)(F)F)nc(N)n1 [Example 27, (S)-7-((2-amino-6-methylpyr-imidin-4-yl)methyl)-4-(cyclo-propylethynyl)-4-(trifluoro-methyl)-3,4-dihydroquin-azolin-2(1H)-one] | 152

Structure (SMILES) | EC50 [nM]
NC(=O)c1ccc(Cc2ccc3c(c2)NC(=O)N[C@]3(C#CC2CC2)C(F)(F)F)cc1 [Example 8, (S)-4-((4-(cyclopropylethynyl)-2-oxo-4-(trifluoromethyl)-1,2,3,4-tetrahydroquinazolin-7-yl)meth-yl)benzamide] | 262
Cc1nc(C)c(Cc2ccc3c(c2)NC(=O)N(C)[C@]3(C#CC2CC2)C(F)(F)F)c(=O)[nH]1 [Example 22] | 230
N#Cc1c(Cc2ccc3c(c2)NC(=O)N[C@]3(C#CC2CC2)C(F)(F)F)ccnc1N [Example 50, (S)-2-amino-4-((4-(cyclo-propylethynyl)-2-oxo-4-(trifluoromethyl)-1,2,3,4-tetrahydroquinazolin-7-yl)-methyl)nicotinonitrile] | 34.9
NS(=O)(=O)c1ccc(Cc2ccc3c(c2)NC(=O)N[C@]3(C#CC2CC2)C(F)(F)F)cc1 [Example 9, (S)-4-((4-(cyclopropylethynyl)-2-oxo-4-(trifluoromethyl)-1,2,3,4-tetrahydroquinazolin-7-yl)meth-yl)benzenesulfonamide] | 193
N#Cc1cnccc1Cc1cc2c(cc1F)[C@@](C#CC1CC1)(C(F)(F)F)NC(=O)N2 [Example 56, (S)-4-((4-(cyclopropylethynyl)-6-fluoro-2-oxo-4-(trifluoromethyl)-1,2,3,4-tetrahydroquinazolin-7-yl)methyl)nicotinonitrile] | 83.5
Nc1ncc(F)c(Cc2cc3c(cc2Cl)[C@@](C#CC2CC2)(C(F)(F)F)NC(=O)N3)n1 [Example 32, (S)-7-((2-amino-5-fluoropyr-imidin-4-yl)methyl)-6-chloro-4-(cyclopropylethynyl)-4-(trifluoromethyl)-3,4-dihydro-quinazolin-2(1H)-one] | 156
Cc1cc[nH]c(=O)c1Cc1ccc2c(c1)NC(=O)N[C@]2(C#CC1CC1)C(F)(F)F [Example 2, (S)-4-(cyclopropylethynyl)-7-((4-methyl-2-oxo-1,2-dihydropyridin-3-yl)methyl)-4-(trifluoromethyl)-3,4-dihydroquinazolin-2(1H)-one] | 132
Nc1cccc(Cc2cc3c(cc2F)[C@@](C#CC2CC2)(C(F)(F)F)NC(=O)N3)n1 [Example 13, (S)-2-amino-6-((4-(cyclopropyl-ethynyl)-6-fluoro-2-oxo-4-(trifluoromethyl)-1,2,3,4-tetra-hydroquinazolin-7-yl)methyl)-pyridin-1-ium 2,2,2-trifluoro-acetate] | 130
Cc1nc(C)c(Cc2ccc3c(c2)NC(=O)N(CC(F)F)[C@]3(C#CC2CC2)C(F)(F)F)c(=O)[nH]1 [Example 24, (S)-4-(cyclopropylethynyl)-3-(2,2-difluoroethyl)-7-((2,4-dimethyl-6-oxo-1,6-dihydropyrimidin-5-l)meth-yl)-4-(trifluoromethyl)-3,4-dihydroquinazolin-2(1H)-one] | 146
Cc1cnc(N)nc1Cc1ccc2c(c1)NC(=O)N[C@]2(C#CC1CC1)C(F)(F)F [Example 34, (S)-7-((2-amino-5-methylpyr-imidin-4-yl)methyl)-4-(cyclo-propylethynyl)-4-(trifluoro-methyl)-3,4-dihydroquinazo-lin-2(1H)-one] | 155
NS(=O)(=O)c1ccc(Cc2cc3c(cc2F)[C@@](C#CC2CC2)(C(F)(F)F)NC(=O)N3)cc1 [Example 11, (S)-4-((4-(cyclopropylethynyl)-6-fluoro-2-oxo-4-(trifluoromethyl)-1,2,3,4-tetrahydroquinazolin-7-yl)methyl)benzenesulfonamide] | 257
Cc1nc[nH]c(=O)c1Cc1ccc2c(c1)NC(=O)N[C@]2(C#CC1CC1)C(F)(F)F [Example 18, (S)-4-(cyclopropylethynyl)-7-((4-methyl-6-oxo-1,6-dihydro-pyrimidin-5-yl)methyl)-4-(trifluoromethyl)-3,4-dihydro-quinazolin-2(1H)-one] | 174
CCN1C(=O)Nc2cc(Cc3c(C)nc(C)[nH]c3=O)ccc2[C@@]1(C#CC1CC1)C(F)(F)F [Example 21, (S)-4-(cyclopropylethynyl)-7-((2,4-dimethyl-6-oxo-1,6-dihydropyrimidin-5-yl)methyl)-3-ethyl-4-(trifluoromethyl)-3,4-dihydroquinazolin-2(1H)-one] | 139
CC(F)(F)[C@@]1(C#CC2CC2)NC(=O)Nc2cc(Cc3ccnc(N)n3)c(F)cc21 [Example 47, (S)-7-((2-aminopyrimidin-4-yl)methyl)-4-(cyclopropylethynyl)-4-(1,1-difluoroethyl)-6-fluoro-3,4-dihydroquinazolin-2(1H)-one] | 17.1
Cc1ncc(Cc2ccc3c(c2)NC(=O)N[C@]3(C#CC2CC2)C(F)(F)F)c(=O)[nH]1 [Example 16, (S)-4-(cyclopropylethynl)-7-((2-methyl-6-oxo-1,6-dihydropyrimidin-5-yl)methyl)-4-(trifluoromethyl)-3,4-dihydroquinazolin-2(1H)-one] | 153
CC(F)(F)[C@@]1(C#CC2CC2)NC(=O)Nc2cc(Cc3nc(N)ncc3F)ccc21 [Example 58, (S)-7-((2-amino-5-fluoropyrimidin-4-yl)methyl)-4-(cyclopropylethynyl)-4-(1,1-difluoroethyl)-3,4-dihydroquinazolin-2(1H)-one] | 82.8
